Measured values as given in article PMC6010128, “Structure–activity relationship investigation of tertiary amine derivatives of cinnamic acid as acetylcholinesterase and butyrylcholinesterase inhibitors: compared with that of phenylpropionic acid, sorbic acid and hexanoic acid” (Journal of Enzyme Inhibition and Medicinal Chemistry, 2018).
Read-outs that look alike come from different tables or passages of the source.

Experiments:
BChE = BChE (Rattus norvegicus, UniProt Q9JKC1); assay: biochemical; set-up: species or system Sprague–Dawley rat
Chain of BChE (Q9JKC1 24-597): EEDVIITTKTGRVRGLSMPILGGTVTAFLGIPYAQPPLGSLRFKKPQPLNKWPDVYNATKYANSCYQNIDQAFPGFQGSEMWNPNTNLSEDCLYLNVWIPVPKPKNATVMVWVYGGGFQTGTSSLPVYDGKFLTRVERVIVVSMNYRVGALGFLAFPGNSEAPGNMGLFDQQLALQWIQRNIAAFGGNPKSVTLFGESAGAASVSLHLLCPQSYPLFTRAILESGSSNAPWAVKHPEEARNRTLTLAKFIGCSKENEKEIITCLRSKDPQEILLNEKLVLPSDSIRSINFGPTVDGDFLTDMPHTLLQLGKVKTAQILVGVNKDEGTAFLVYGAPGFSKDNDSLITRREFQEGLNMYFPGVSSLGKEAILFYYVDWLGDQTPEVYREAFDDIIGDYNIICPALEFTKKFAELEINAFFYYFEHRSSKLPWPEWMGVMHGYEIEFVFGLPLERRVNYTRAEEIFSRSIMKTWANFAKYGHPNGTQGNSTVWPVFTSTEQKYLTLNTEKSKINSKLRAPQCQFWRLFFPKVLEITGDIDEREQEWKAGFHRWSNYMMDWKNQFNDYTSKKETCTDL

[1] = pKa by pH-titration method; type: physicochemical
Procedure: pKa is determined by pH-titration method according to the report. The titration curve E vs. VT was recorded and pKa value was calculated.

AChE [2] = biological target: T1, AChE (Rattus norvegicus, UniProt P37136); assay: biochemical
T1 sequence (P37136 32-614): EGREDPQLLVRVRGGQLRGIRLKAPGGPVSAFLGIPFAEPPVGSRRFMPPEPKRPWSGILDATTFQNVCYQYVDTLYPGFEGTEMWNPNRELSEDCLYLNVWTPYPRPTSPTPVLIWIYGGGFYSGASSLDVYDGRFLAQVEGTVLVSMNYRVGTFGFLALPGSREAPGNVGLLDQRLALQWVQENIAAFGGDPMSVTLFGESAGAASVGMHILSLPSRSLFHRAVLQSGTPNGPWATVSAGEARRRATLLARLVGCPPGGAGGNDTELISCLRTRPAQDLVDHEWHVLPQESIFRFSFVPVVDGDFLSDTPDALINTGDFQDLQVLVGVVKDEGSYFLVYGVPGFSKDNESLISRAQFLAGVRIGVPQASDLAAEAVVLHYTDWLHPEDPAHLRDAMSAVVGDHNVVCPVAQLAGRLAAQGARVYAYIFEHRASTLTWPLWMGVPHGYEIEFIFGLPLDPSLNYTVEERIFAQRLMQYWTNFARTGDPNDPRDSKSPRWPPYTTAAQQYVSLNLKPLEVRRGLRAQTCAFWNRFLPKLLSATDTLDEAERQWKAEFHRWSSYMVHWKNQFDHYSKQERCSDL

[3] = Log P by shake flask method; type: physicochemical; conditions: octanol / PBS pH = 7.4, shake flask
Procedure: Log P is defined as the logarithm of octanol–water partition coefficient. […] Ultraviolet spectrophotometry was applied to determine the concentration of compounds. Log p values were calculated based on the data in triplicate.

AChE [4] = biological target: T1, AChE; assay: Kinetic study of AChE inhibition (Lineweaver–Burk); type: biochemical
Procedure: Kinetic characterization of AChE was performed by a reported method. Compound 6g was added into the assay solution and preincubated with the enzyme at 30 °C, followed by the addition of 100 μL acetylthiocholine iodide including five concentrations. The assay solution contained 100 μL compound 6g, 100 μL DTNB, 2.79 ml 0.1 mol/l Na2HPO4/NaH2PO4 buffer (pH 7.4). Kinetic profile of the hydrolysis of acetylthiocholine iodide catalyzed by AChE was determined by the UV–Vis spectrometry at 412 nm. The parallel control experiment was carried out without compound 6g in the mixture.
Compound 6g was selected for further kinetic study since it had the strongest inhibiting activity against AChE among new synthesized compounds.
Fig. 2 Lineaweaver–Burk plot for the inhibition of AChE by compound 6g
Table 2 Kinetic parameters of AChE inhibited by compound 6g
C Michaelis-Menten Km Vmax Ki Ki’
(µmol/L) equation (mmol/L) (ΔAmin-1) (µmol//L) (µmol/L)
(1 picture or pasted object on this page, not shown here)

[5] = rat serum BChE, Mean ± SD, triplicate
[6] = rat brain AChE, Mean ± SD, triplicate

Compound | IC50 (BChE; [5]) | pKa ([1]; read-out: pKa) | Selectivity for AChE (AChE [2]; IC50 (BChE)/IC50 (AChE)) | IC50 (AChE [2]; [6]) | logP [3] | further results
O=C(C=Cc1ccccc1)Nc1ccc(OCCN2CCCC2)cc1 [Compound 6g] | 104 ± 1.34 µM | 6.74 | 28.6 | 3.64 ± 0.28 µM | 1.33 | Vmax (AChE [4]; AChE with 0.72 µmol/L compound 6g): 0.023 ΔAmin-1; Vmax (AChE [4]; AChE with 1.43 µmol/L compound 6g): 0.021 ΔAmin-1; Vmax (AChE [4]; AChE with 2.86 µmol/L compound 6g): 0.019 ΔAmin-1; non-competitive constant (Ki′) (AChE [4]; AChE, acetylthiocholine iodide substrate): 2.14 µM; Ki (AChE [4]; AChE, acetylthiocholine iodide substrate, read-out: competitive inhibit constant (Ki)): 7.27 µM; type of inhibition against AChE (AChE [4]; Lineweaver–Burk analysis): mixed-type inhibition
CCCCCC(=O)Nc1ccccc1OCCN(C)C [Compound 22d] |  |  |  |  |  | IC50 (BChE): 26.6 ± 1.36 µM; pKa [1]: 7.32; IC50 (AChE [2]): 186 ± 8.22 µM; Selectivity for AChE (AChE [2]): 0.14; Log P [3]: 1.23
CCCCCC(=O)Nc1ccccc1OCCN(CC)CC [Compound 22e] | 37.2 ± 2.24 µM | 7.08 | <0.07 | > 500 µM | 1.67 | 
CCCCCC(=O)Nc1ccccc1OCCN1CCCCC1 [Compound 22f] | 9.04 ± 0.27 µM | 6.99 | 0.03 | 325 ± 7.65 µM | 1.11 | 
CCCCCC(=O)Nc1ccccc1OCCN1CCCC1 [Compound 22g] | 18.6 ± 0.32 µM | 7.16 | <0.04 | > 500 µM | 1.11 | 
CCCCCC(=O)Nc1cccc(OCCN(C)C)c1 [Compound 23d] | 7.89 ± 0.89 µM | 6.52 | 0.13 | 60.6 ± 2.18 µM | 0.37 | 
CCCCCC(=O)Nc1cccc(OCCN(CC)CC)c1 [Compound 23e] | 0.67 ± 0.04 µM | 7.15 | 0.01 | 125 ± 4.23 µM | 0.93 | 
CCCCCC(=O)Nc1cccc(OCCN2CCCCC2)c1 [Compound 23f] | 0.22 ± 0.02 µM | 7.32 | 0.002 | 76.7 ± 3.17 µM | 1.55 | 
CCCCCC(=O)Nc1cccc(OCCN2CCCC2)c1 [Compound 23g] | 0.34 ± 0.01 µM | 7.69 | 0.01 | 50.7 ± 2.66 µM | 1.37 | 
CCCCCC(=O)Nc1ccc(OCCN(C)C)cc1 [Compound 24d] | 33.8 ± 4.21 µM | 7.16 | 0.81 | 41.7 ± 2.89 µM | 0.72 | 
CCCCCC(=O)Nc1ccc(OCCN(CC)CC)cc1 [Compound 24e] | 9.9 ± 1.28 µM | 7.48 | <0.02 | > 500 µM | 1.1 | 
CCCCCC(=O)Nc1ccc(OCCN2CCCCC2)cc1 [Compound 24f] | 17 ± 2.03 µM | 7.16 | 0.54 | 31.7 ± 2.74 µM | 1.54 | 
CCCCCC(=O)Nc1ccc(OCCN2CCCC2)cc1 [Compound 24g] | 13.9 ± 1.66 µM | 6.92 | 0.82 | 16.9 ± 0.91 µM | 0.16 | 
